Holding throughout (format): in vivo
One test relates to Hordeum murinum. Nature of the test: Post-emergence herbicidal activity against HORMU. The following applies: dosage 320 g/ha; for pest or weed control at 320 g/ha: Hordeum murinum, 504 h. The procedure, abridged:
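Greenhouse pot plants sprayed post-emergence at one-leaf stage (2-3 weeks after sowing) with WP or EC formulations, 0.5% additive, 600 l/ha water. Visual rating about 3 weeks later versus untreated controls: 100% = plants dead, 0% = like control.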

For test [1], the system named is Alopecurus myosuroides. The experiment in a line: Pre-emergence herbicidal activity against ALOMY. The following applies: dosage 80 g/ha, scored visually after about 3 weeks vs untreated controls (100% = plants have died, 0% = like control plants); for pest or weed control at 80 g/ha: Alopecurus myosuroides, 504 h. The source says:
(§1) 1. Pre-Emergence Herbicidal Action and Crop Plant Compatibility Seeds of monocotyledonous and dicotyledonous weed plants and crop plants are placed in plastic or wood fiber pots and covered with soil. The compounds of the invention, formulated in the form of wettable powders (WP) or as emulsion concentrates (EC), are then applied onto the surface of the covering soil as aqueous suspension or emulsion with addition of 0.5% additive at a water application rate of 600 l/ha (converted). After the treatment, the pots are placed in a greenhouse and kept under good growth conditions for the trial plants. After about 3 weeks, the effect of the preparations is scored visually in comparison with untreated controls as percentages. For example, 100% activity=the plants have died, 0% activity=like control plants. ABUTH: Abutilon theophrasti ALOMY: Alopecurus myosuroides

For another test, the system named is Pharbitis purpurea. The experiment in a line: Post-emergence herbicidal activity against PHBPU. The following applies: dosage 320 g/ha, rated about 3 weeks after treatment; for pest or weed control at 320 g/ha: Ipomoea purpurea, 504 h. The procedure, abridged: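 Greenhouse-grown plants sprayed post-emergence at the one-leaf stage, 2 to 3 weeks after sowing, with WP or EC formulations plus 0.5% additive at 600 l/ha water. Activity rated visually after about 3 weeks versus untreated controls (100% = plants dead, 0% = like control).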

Test [2] relates to Stellaria media. The experiment in a line: Pre-emergence herbicidal activity against STEME. The following applies: dosage 80 g/ha; for pest or weed control at 80 g/ha: Stellaria media, 504 h.
Excerpt: as §1, with “STEME: Stellaria media VERPE: Veronica persica” for “ABUTH: Abutilon theophrasti ALOMY: Alopecurus myosuroides”

Test [3] relates to Stellaria media. Nature of the test: Post-emergence herbicidal activity against STEME. As to conditions: dosage 320 g/ha, rated about 3 weeks after treatment; for pest or weed control at 320 g/ha: Stellaria media, 504 h. The method, boiled down:
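Greenhouse plants treated at one-leaf stage, 2–3 weeks after sowing, by spraying WP or EC formulations with 0.5% additive at 600 l/ha water. Visual rating about 3 weeks later versus untreated controls (100% = plants dead, 0% = like controls).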

The next test concerns Veronica persica. Nature of the test: Pre-emergence herbicidal activity against VERPE. The following applies: dosage 80 g/ha; for pest or weed control at 80 g/ha: Veronica persica, 504 h.
Excerpt: as §1, with “STEME: Stellaria media VERPE: Veronica persica” for “ABUTH: Abutilon theophrasti ALOMY: Alopecurus myosuroides”

The next test concerns Amaranthus retroflexus. Nature of the test: Post-emergence herbicidal activity against AMARE. The following applies: dosage 320 g/ha, rated about 3 weeks after treatment; for pest or weed control at 320 g/ha: Amaranthus retroflexus, 504 h. The procedure, abridged:
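Greenhouse pots of sandy loam; plants sprayed at one-leaf stage, 2 to 3 weeks after sowing, with WP or EC formulations in water plus 0.5% additive at 600 l/ha. Activity rated visually after about 3 weeks against untreated controls (100% = plants dead, 0% = like control).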

Test [4] relates to Alopecurus myosuroides. Nature of the test: Post-emergence herbicidal activity against ALOMY. The following applies: dosage 320 g/ha, rated about 3 weeks after treatment; for pest or weed control at 320 g/ha: Alopecurus myosuroides, 504 h. The method, boiled down:
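Greenhouse-grown plants treated at one-leaf stage, 2 to 3 weeks after sowing, with WP or EC formulations sprayed as aqueous suspension/emulsion plus 0.5% additive at 600 l/ha. Activity rated visually about 3 weeks later versus untreated controls (100% = plants dead, 0% = like control).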

These results are taken from patent US11597724B2, “Herbicidally active 3-phenylisoxazoline-5-carboxamides of tetrahydro and dihydrofuran carboxylic acids and esters” (Bayer Aktiengesellschaft, priority 2017, dated 2023).

By pest or weed control is commonly meant how far the test organism was held down.

Consider `C=C[C@]1(C(=O)N[C@H]2CO[C@@H](C(=O)OC(C)(C)C)C2)CC(c2cc(F)cc(F)c2)=NO1` (mixture of isomers) [I-38, tert-butyl cis-4-[[(5S)-3-(3,5-difluorophenyl)-5-vinyl-4H-isoxazole-5-carbonyl]amino]tetrahydrofuran-2-carboxylate], for which the pest or weed control at 320 g/ha amounted to 90% in the test with Hordeum murinum; 90% in the test with Pharbitis purpurea; 90% with Stellaria media [3]; 100% with Amaranthus retroflexus; 90% in the test on Alopecurus myosuroides [4]. The pest or weed control at 80 g/ha in the test on Alopecurus myosuroides [1], with Stellaria media [2] and with Veronica persica was 100% in each case.

With `C=C[C@]1(C(=O)NC2COCC2C(=O)OC)CC(c2cc(F)cc(F)c2)=NO1` (stereo partly drawn) [I-26, methyl 4-[[(5S)-3-(3,5-difluorophenyl)-5-vinyl-4H-isoxazole-5-carbonyl]amino]tetrahydrofuran-3-carboxylate], the pest or weed control at 80 g/ha with Alopecurus myosuroides [1], in the test with Stellaria media [2] and with Veronica persica was 100% throughout. The pest or weed control at 320 g/ha in the test with Pharbitis purpurea turned out to be 80%; in the test with Stellaria media [3], 90%; in the test on Amaranthus retroflexus it was 80%; in the test with Alopecurus myosuroides [4], 90%.

`COC(=O)C1COCC1NC(=O)C1(C)CC(c2cc(F)cc(F)c2)=NO1` (stereo not shown) [I-19, methyl 4-[[3-(3,5-difluorophenyl)-5-methyl-4H-isoxazole-5-carbonyl]amino]tetrahydrofuran-3-carboxylate]: the pest or weed control at 80 g/ha in the test on Alopecurus myosuroides [1] worked out at 90%; with Stellaria media [2], 80%; with Veronica persica, 90%. Also, the pest or weed control at 320 g/ha was 80% with Pharbitis purpurea, 90% in the test on Stellaria media [3], 90% with Amaranthus retroflexus and 90% in the test on Alopecurus myosuroides [4].

As to `COC(=O)C1COCC1NC(=O)C1(OC)CC(c2cc(F)cc(F)c2)=NO1` (stereo not shown) [I-27, methyl 4-[[3-(3,5-difluorophenyl)-5-methoxy-4H-isoxazole-5-carbonyl]amino]tetrahydrofuran-3-carboxylate], the pest or weed control at 80 g/ha in the test with Alopecurus myosuroides [1], in the test on Stellaria media [2] and with Veronica persica was 90% in each case. In addition, the pest or weed control at 320 g/ha in the test with Pharbitis purpurea was determined as 80%; in the test on Stellaria media [3], 80%; in the test on Alopecurus myosuroides [4], 90%.

`C=C[C@]1(C(=O)N[C@H]2CO[C@@H](C(=O)OCc3ccccc3)C2)CC(c2cc(F)cc(F)c2)=NO1` (mixture of isomers) [I-37, benzyl cis-4-[[(5S)-3-(3,5-difluorophenyl)-5-vinyl-4H-isoxazole-5-carbonyl]amino]tetrahydrofuran-2-carboxylate]: the pest or weed control at 320 g/ha was found to be 80% in the test on Hordeum murinum, 90% with Pharbitis purpurea, 90% in the test with Stellaria media [3] and 80% with Amaranthus retroflexus. Besides, the pest or weed control at 80 g/ha in the test with Alopecurus myosuroides [1], in the test on Stellaria media [2] and with Veronica persica was 100% in each case.

As to `COC(=O)C1CC(NC(=O)C2(C(C)(F)F)CC(c3cc(F)cc(F)c3)=NO2)CO1` (stereo not shown) [I-49], in the test on Alopecurus myosuroides [1], the “Pre-emergence herbicidal activity against ALOMY in %” value was 100%. Besides, the “Post-emergence herbicidal activity against PHBPU in %” value with Pharbitis purpurea was 80%. Besides, the “Pre-emergence herbicidal activity against STEME in %” value with Stellaria media [2] worked out at 100%. The “Post-emergence herbicidal activity against STEME in %” value with Stellaria media [3] was 90%. The “Pre-emergence herbicidal activity against VERPE in %” value with Veronica persica is recorded as 100%. In addition, the “Post-emergence herbicidal activity against ALOMY in %” value with Alopecurus myosuroides [4] stood at 90%.

On to `COC(=O)C1COCC1NC(=O)[C@@]1(C)CC(c2cc(F)cc(F)c2)=NO1` (stereo partly drawn) [I-28, methyl 4-[[(5R)-3-(3,5-difluorophenyl)-5-methyl-4H-isoxazole-5-carbonyl]amino]tetrahydrofuran-3-carboxylate], for which the pest or weed control at 80 g/ha stood at 100% with Alopecurus myosuroides [1], 100% in the test on Stellaria media [2] and 90% in the test on Veronica persica. Moreover, the pest or weed control at 320 g/ha in the test with Pharbitis purpurea came out at 80%; with Stellaria media [3], 80%; in the test with Amaranthus retroflexus, 80%; in the test with Alopecurus myosuroides [4], 90%.

As to `COC(=O)[C@H]1C[C@@H](NC(=O)C2(OC)CC(c3cc(C)cc(Br)c3)=NO2)CO1` (relative stereo) [I-08, methyl cis-4-[[3-(3-bromo-5-methylphenyl)-5-methoxy-4H-isoxazole-5-carbonyl]amino]tetrahydrofuran-2-carboxylate], the pest or weed control at 320 g/ha with Pharbitis purpurea was 90%. Also, the pest or weed control at 80 g/ha in the test with Veronica persica amounted to 90%.

In the case of `COC(=O)[C@H]1C[C@@H](NC(=O)C2(C)CC(c3cc(F)cc(F)c3)=NO2)CO1` (relative stereo) [I-01, methyl cis-4-[[3-(3,5-difluorophenyl)-5-methyl-4H-isoxazole-5-carbonyl]amino]tetrahydrofuran-2-carboxylate], the values for the pest or weed control at 80 g/ha in the test on Alopecurus myosuroides [1], with Stellaria media [2] and in the test with Veronica persica were 100%, 90% and 80%, respectively. Also, the pest or weed control at 320 g/ha in the test on Pharbitis purpurea is 90%; in the test with Stellaria media [3] it was 90%; in the test with Amaranthus retroflexus, 80%; in the test on Alopecurus myosuroides [4], 100%.

As to `CC1(C(=O)NC2COC(C(=O)O)C2)CC(c2cc(F)cc(F)c2)=NO1` (mixture of isomers) [I-41], the “Post-emergence herbicidal activity against HORMU in %” value in the test with Hordeum murinum is recorded as 100%. Moreover, the “Pre-emergence herbicidal activity against ALOMY in %” value in the test with Alopecurus myosuroides [1] is 100%. The “Post-emergence herbicidal activity against PHBPU in %” value in the test on Pharbitis purpurea was 90%. The “Pre-emergence herbicidal activity against STEME in %” value with Stellaria media [2] was 100%. Besides, the “Post-emergence herbicidal activity against STEME in %” value in the test on Stellaria media [3] is on record as 90%. In addition, in the test with Amaranthus retroflexus, the “Post-emergence herbicidal activity against AMARE in %” value stood at 100%. The “Post-emergence herbicidal activity against ALOMY in %” value in the test with Alopecurus myosuroides [4] is 100%.

For `COC(=O)C1COCC1NC(=O)C1(OC)CC(c2cc(Cl)cc(Cl)c2)=NO1` (stereo not shown) [I-29, methyl 4-[[3-(3,5-dichlorophenyl)-5-methoxy-4H-isoxazole-5-carbonyl]amino]tetrahydrofuran-3-carboxylate], the pest or weed control at 80 g/ha in the test on Alopecurus myosuroides [1] came to 90%; with Stellaria media [2] it was 90%; with Veronica persica, 100%. The pest or weed control at 320 g/ha in the test with Pharbitis purpurea is 80%; in the test on Stellaria media [3], 80%; with Alopecurus myosuroides [4], 90%.

Consider `COC(=O)[C@H]1C[C@@H](NC(=O)[C@@]2(C)CC(c3cc(F)cc(F)c3)=NO2)CO1` (mixture of isomers) [I-09, methyl cis-4-[[(5R)-3-(3,5-difluorophenyl)-5-methyl-4H-isoxazole-5-carbonyl]amino]tetrahydrofuran-2-carboxylate], for which the results for the pest or weed control at 80 g/ha in the test with Alopecurus myosuroides [1] and in the test with Veronica persica were 100% and 90%, respectively. In addition, the pest or weed control at 320 g/ha in the test on Pharbitis purpurea, in the test with Stellaria media [3] and in the test with Alopecurus myosuroides [4] was 90% in each case.

As for `C=CC1(C(=O)N[C@H]2CO[C@@H](C(=O)O)C2)CC(c2cc(F)cc(F)c2)=NO1` (relative stereo) [I-21, cis-4-[[3-(3,5-difluorophenyl)-5-vinyl-4H-isoxazole-5-carbonyl]amino]tetrahydrofuran-2-carboxylic acid], the pest or weed control at 80 g/ha in the test on Alopecurus myosuroides [1], in the test on Stellaria media [2] and with Veronica persica was 100% in each case. For the same compound, the pest or weed control at 320 g/ha was 80% in the test on Pharbitis purpurea, 80% in the test on Stellaria media [3], 100% in the test with Amaranthus retroflexus and 90% with Alopecurus myosuroides [4].
